Data as given in ChEMBL document CHEMBL1909588, “Synthesis and in vitro antitubercular evaluation of novel sansanmycin derivatives” (2011).
≈ marks a conversion by molar mass, not a printed value.

system: Mycobacterium tuberculosis; test: Antitubercular activity against Mycobacterium tuberculosis H37Rv […] by microplate alamar blue assay; type: functional

Row | SMILES | MIC [µg/mL]
1 | CCNC(Cc1cccc(O)c1)C(=O)N(C)C(C)C(NC(=O)C(CCSC)NC(=O)NC(Cc1c[nH]c2ccccc12)C(=O)O)C(=O)N/C=C1\C[C@@H](O)[C@H](n2ccc(=O)[nH]c2=O)O1 (stereo not given in full) | > 16
2 | CCCCNC(Cc1cccc(O)c1)C(=O)N(C)C(C)C(NC(=O)C(CCSC)NC(=O)NC(Cc1c[nH]c2ccccc12)C(=O)O)C(=O)N/C=C1\C[C@@H](O)[C@H](n2ccc(=O)[nH]c2=O)O1 (stereo not given in full) | > 16
3 | CSCCC(NC(=O)NC(Cc1c[nH]c2ccccc12)C(=O)O)C(=O)NC(C(=O)N/C=C1\C[C@@H](O)[C@H](n2ccc(=O)[nH]c2=O)O1)C(C)N(C)C(=O)C(Cc1cccc(O)c1)NS(=O)(=O)c1ccc(C)cc1 (stereo not given in full) | > 16
4 | NNC(=O)c1ccncc1 [ISONIAZID] | 0.05 (≈ 0.365 µM)
5 | CSCCC(NC(=O)NC(Cc1c[nH]c2ccccc12)C(=O)O)C(=O)NC(C(=O)N/C=C1\C[C@@H](O)[C@H](n2ccc(=O)[nH]c2=O)O1)C(C)N(C)C(=O)C(Cc1cccc(OC(C)=O)c1)NC(C)=O (stereo not given in full) | > 16
6 | CSCCC(NC(=O)NC(Cc1c[nH]c2ccccc12)C(=O)O)C(=O)NC(C(=O)N/C=C1\C[C@@H](O)[C@H](n2ccc(=O)[nH]c2=O)O1)C(C)N(C)C(=O)C(Cc1cccc(O)c1)NC(=O)OCc1ccccc1 (stereo not given in full) | > 16
7 | CCOC(=O)NC(Cc1cccc(O)c1)C(=O)N(C)C(C)C(NC(=O)C(CCSC)NC(=O)NC(Cc1c[nH]c2ccccc12)C(=O)O)C(=O)N/C=C1\C[C@@H](O)[C@H](n2ccc(=O)[nH]c2=O)O1 (stereo not given in full) | > 16
8 | CCCCCNC(Cc1cccc(O)c1)C(=O)N(C)C(C)C(NC(=O)C(CCSC)NC(=O)NC(Cc1c[nH]c2ccccc12)C(=O)O)C(=O)N/C=C1\C[C@@H](O)[C@H](n2ccc(=O)[nH]c2=O)O1 (stereo not given in full) | > 16
9 | COc1ccc(S(=O)(=O)NC(Cc2cccc(O)c2)C(=O)N(C)C(C)C(NC(=O)C(CCSC)NC(=O)NC(Cc2c[nH]c3ccccc23)C(=O)O)C(=O)N/C=C2\C[C@@H](O)[C@H](n3ccc(=O)[nH]c3=O)O2)cc1 (stereo not given in full) | > 16
10 | CSCCC(NC(=O)NC(Cc1c[nH]c2ccccc12)C(=O)O)C(=O)NC(C(=O)N/C=C1\C[C@@H](O)[C@H](n2ccc(=O)[nH]c2=O)O1)C(C)N(C)C(=O)C(N)Cc1cccc(O)c1 (stereo not given in full) [SANSANMYCIN A] | 16 (≈ 18.5 µM)
11 | CSCCC(NC(=O)NC(Cc1c[nH]c2ccccc12)C(=O)O)C(=O)NC(C(=O)N/C=C1\C[C@@H](O)[C@H](n2ccc(=O)[nH]c2=O)O1)C(C)N(C)C(=O)C(Cc1cccc(O)c1)NS(C)(=O)=O (stereo not given in full) | > 16
12 | CSCCC(NC(=O)NC(Cc1c[nH]c2ccccc12)C(=O)O)C(=O)NC(C(=O)N/C=C1\C[C@@H](O)[C@H](n2ccc(=O)[nH]c2=O)O1)C(C)N(C)C(=O)C(Cc1cccc(O)c1)NC(=O)c1ccccc1 (stereo not given in full) | > 16
13 | CSCCC(NC(=O)NC(Cc1c[nH]c2ccccc12)C(=O)O)C(=O)NC(C(=O)N/C=C1\C[C@@H](O)[C@H](n2ccc(=O)[nH]c2=O)O1)C(C)N(C)C(=O)C(Cc1cccc(O)c1)NC(=O)CCl (stereo not given in full) | > 16
14 | CSCCC(NC(=O)NC(Cc1c[nH]c2ccccc12)C(=O)O)C(=O)NC(C(=O)N/C=C1\C[C@@H](O)[C@H](n2ccc(=O)[nH]c2=O)O1)C(C)N(C)C(=O)C(Cc1cccc(O)c1)NS(=O)(=O)c1ccccc1 (stereo not given in full) | > 16
15 | COC(=O)NC(Cc1cccc(O)c1)C(=O)N(C)C(C)C(NC(=O)C(CCSC)NC(=O)NC(Cc1c[nH]c2ccccc12)C(=O)O)C(=O)N/C=C1\C[C@@H](O)[C@H](n2ccc(=O)[nH]c2=O)O1 (stereo not given in full) | > 16
16 | CO[C@H]1/C=C/O[C@@]2(C)Oc3c(C)c(O)c4c(O)c(c(/C=N/N5CCN(C)CC5)c(O)c4c3C2=O)NC(=O)/C(C)=C\C=C\[C@H](C)[C@H](O)[C@@H](C)[C@@H](O)[C@@H](C)[C@H](OC(C)=O)[C@@H]1C [RIFAMPIN] | 0.12 (≈ 0.146 µM)
17 | CSCCC(NC(=O)NC(Cc1c[nH]c2ccccc12)C(=O)O)C(=O)NC(C(=O)N/C=C1\C[C@@H](OC(C)=O)[C@H](n2ccc(=O)[nH]c2=O)O1)C(C)N(C)C(=O)C(Cc1cccc(OC(C)=O)c1)NC(C)=O (stereo not given in full) | > 16
18 | CSCCC(NC(=O)NC(Cc1c[nH]c2ccccc12)C(=O)O)C(=O)NC(C(=O)N/C=C1\C[C@@H](O)[C@H](n2ccc(=O)[nH]c2=O)O1)C(C)N(C)C(=O)C(Cc1cccc(O)c1)NC(C)C (stereo not given in full) | 8 (≈ 8.83 µM)
19 | CSCCC(NC(=O)NC(Cc1c[nH]c2ccccc12)C(=O)O)C(=O)NC(C(=O)N/C=C1\C[C@@H](O)[C@H](n2ccc(=O)[nH]c2=O)O1)C(C)N(C)C(=O)C(Cc1cccc(O)c1)N(C)C (stereo not given in full) | 16 (≈ 17.9 µM)
20 | CCCNC(Cc1cccc(O)c1)C(=O)N(C)C(C)C(NC(=O)C(CCSC)NC(=O)NC(Cc1c[nH]c2ccccc12)C(=O)O)C(=O)N/C=C1\C[C@@H](O)[C@H](n2ccc(=O)[nH]c2=O)O1 (stereo not given in full) | > 16
